According to US20110165195A1 (priority 2007, published 2011):

Assays:
[1] = tested on: rat intestinal tract tissue; conditions: in vivo; cited from earlier work
Caco-2 cell line = conditions: cited from earlier work
in vivo [2] = conditions: male, SD, rat, sc, 10 ug/kg
in vivo [3] = conditions: male, SD, rat, iv, 10 ug/kg
in vivo [4] = conditions: male, SD, rat
in vivo [5] = conditions: male, SD, rat; remark: listed apart in the source
in vivo [6] = conditions: male, rat
in vivo [7] = conditions: male, SD, rat; remark: listed apart in the source
in vivo [8] = conditions: male, SD, rat, iv, 10 ug/kg; remark: listed apart in the source
[9] = rat, in vivo

## CCCCCCCCCC(=O)O [capric acid]
[1]
  cytotoxicity and tissue damage: exhibits cytotoxicity and causes tissue damage
Caco-2 cell line
  cytotoxicity and tissue damage: exhibits cytotoxicity and causes tissue damage

## CC[C@H](C)[C@H](NC(=O)[C@H](CCC(=O)O)NC(=O)[C@H](CO)NC(=O)[C@@H](NC(=O)[C@@H](N)CO)C(C)C)C(=O)N[C@@H](CCC(N)=O)C(=O)N[C@@H](CC(C)C)C(=O)N[C@@H](CCSC)C(=O)N[C@@H](Cc1cnc[nH]1)C(=O)N[C@@H](CC(N)=O)C(=O)N[C@@H](CC(C)C)C(=O)NCC(=O)N[C@@H](CCCCN)C(=O)N[C@@H](Cc1cnc[nH]1)C(=O)N[C@@H](CC(C)C)C(=O)N[C@@H](CC(N)=O)C(=O)N[C@@H](CO)C(=O)N[C@@H](CCSC)C(=O)N[C@@H](CCC(=O)O)C(=O)N[C@@H](CCCN=C(N)N)C(=O)N[C@H](C(=O)N[C@@H](CCC(=O)O)C(=O)N[C@@H](Cc1c[nH]c2ccccc12)C(=O)N[C@@H](CC(C)C)C(=O)N[C@@H](CCCN=C(N)N)C(=O)N[C@@H](CCCCN)C(=O)N[C@@H](CCCCN)C(=O)N[C@@H](CC(C)C)C(=O)N[C@@H](CCC(N)=O)C(=O)N[C@@H](CC(=O)O)C(=O)N[C@H](C(=O)N[C@@H](Cc1cnc[nH]1)C(=O)N[C@@H](CC(N)=O)C(=O)N[C@@H](Cc1ccccc1)C(=O)O)C(C)C)C(C)C [hPTH(1-34)]
In vivo [2]
  AUC: 0.827 ng·h/mL
  Cmax: 1.07 ± 0.41 ng/mL
In vivo [3]
  AUC: 3.48 ng·h/mL
  Cmax: 31 ± 1.3 ng/mL
In vivo [4]
  bioavailability: 0.3 ± 0.1%
In vivo [4]; inhaled or intranasal
  AUC: 0.732 ng·h/mL
  Cmax: 0.67 ± 0.16 ng/mL
In vivo [5]
  AUC: 25.6 ng·h/mL
  Cmax: 27.8 ± 15.9 ng/mL
In vivo [5]; iv
  bioavailability: 14.6 ± 10.7%
In vivo [6]; Wistar, iv
  bioavailability: 0.4 ± 0.4%
In vivo [6]; Wister
  AUC: 0.538 ng·h/mL
  Cmax: 0.93 ± 0.8 ng/mL

## CCCCCCCC(=O)OC[C@H](NC(=O)[C@H](CO)NC(=O)CN)C(=O)N[C@@H](Cc1ccccc1)C(=O)N[C@@H](CC(C)C)C(=O)N[C@@H](CO)C(=O)N1CCC[C@H]1C(=O)N[C@@H](CCC(=O)O)C(=O)N[C@@H](Cc1cnc[nH]1)C(=O)N[C@@H](CCC(N)=O)C(=O)N[C@@H](CCCNC(=N)N)C(=O)N[C@H](C(=O)N[C@@H](CCC(N)=O)C(=O)N[C@@H](CCC(N)=O)C(=O)N[C@@H](CCCNC(=N)N)C(=O)N[C@@H](CCCCN)C(=O)N[C@@H](CCC(=O)O)C(=O)N[C@@H](CO)C(=O)N[C@@H](CCCCN)C(=O)N[C@@H](CCCCN)C(=O)N1CCC[C@H]1C(=O)N1CCC[C@H]1C(=O)N[C@@H](C)C(=O)N[C@@H](CCCCN)C(=O)N[C@@H](CC(C)C)C(=O)N[C@@H](CCC(N)=O)C(=O)N1CCC[C@H]1C(=O)N[C@@H](CCCNC(=N)N)C(=O)O)C(C)C [human ghrelin]
In vivo [7]
  AUC: 0.533 ng·h/mL
  Cmax: 2.25 ± 2 ng/mL
  bioavailability: 1.6 ± 1.4%
In vivo [8]
  AUC: 3.43 ng·h/mL
  C0: 40.7 ng/mL

## CC[C@H](C)[C@H](NC(=O)[C@@H]1CCCN1C(=O)[C@@H](NC(=O)[C@@H](N)Cc1ccccc1)C(C)C)C(=O)N[C@@H](Cc1ccccc1)C(=O)N[C@H](C(=O)N[C@@H](Cc1ccc(O)cc1)C(=O)NCC(=O)N[C@@H](CCC(=O)O)C(=O)N[C@@H](CC(C)C)C(=O)N[C@@H](CCC(N)=O)C(=O)N[C@@H](CCCNC(=N)N)C(=O)N[C@@H](CCSC)C(=O)N[C@@H](CCC(N)=O)C(=O)N[C@@H](CCC(=O)O)C(=O)N[C@@H](CCCCN)C(=O)N[C@@H](CCC(=O)O)C(=O)N[C@@H](CCCNC(=N)N)C(=O)N[C@@H](CC(N)=O)C(=O)N[C@@H](CCCCN)C(=O)NCC(=O)N[C@@H](CCC(N)=O)C(=O)O)[C@@H](C)O [human motilin]
[9]
  BA of human motilin: 1.1 ± 0.7%
